From US20240376097A1, “BCL-2 Inhibitor” (BeiGene Ltd., priority 2020, published 2024) come the findings set out here.

A value given as a limit tells only on which side of the number the result lay.

The subject of series [1] is RS4;11 (BCL-2 dependent acute lymphoblastic leukemia cell line). The experiment in a line: RS4;11 Cell Proliferation Assay. The class given is cell-based. Particulars: Homo sapiens, RS4;11 cells, read-out: Cellular proliferation assay (IC50, nM) RS4. In short, it runs like this: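 RS4;11 cells, 50,000 per well in RPMI-1640 with 10% FBS, treated 48 h at 37 °C with a 10-point dilution series topping at 1 μM. Viability read by CellTiter-Glo ATP luminescence; mean IC50 reported.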

A further series is described as follows: Mouse PK Study. Format: in vivo. The note with it: plasma, male CD-1 mouse. How it is done:
Biological Example: Mouse PK Study
The pharmacokinetics of compounds were evaluated in male CD-1 mouse via Intravenous (dose of 1 mg/kg) and Oral Administration (dose of 10 mg/kg). For intravenous administration study, test compounds were dissolved in DMSO/EtOH/Cremophor EL/D5W (2.5/10/20/67.5, by volume) and injected with a 1 mg/kg dose via tail vein. For oral administration study, test compounds were dissolved in PEG400/Phosal 50 PG/EtOH (30/60/10, by volume) and administrated to mice at 10 mg/kg by gavage. Blood was collected into EDTA-K2 anticoagulant tube at 5 (IV only). 15, and 30 min and 1, 2, 4, 8 and 24 h after administration. Approximately 30 μL blood was collected at each time point. And then the blood was centrifuged at 3000 g for 5 min at 4° C. using a centrifuge to obtain the plasma. The plasma sample was transferred into a tube and stored in a freezer at approximately −20° C. until the determination of concentration by LC-MS/MS. Pharmacokinetic parameter were estimated by using WinNonlin software (version 8.1, Pharsight Corporation, CA, USA) with non-compartmental method. The following pharmacokinetic parameters were calculated, whenever possible from the plasma concentration-time data: CL, Vd, T1/2, AUClast, AUCinf for IV administration and Tmax, Cmax, AUClast, AUCinf, T1/2 for PO administration. All animals are free fed before experiment. For comparison purpose, the PK results of certain compounds in previous disclosure were obtained using the same methods.

Series [2] addresses recombinant human Bcl-2 D103Y protein (Homo sapiens (Human), UniProt P10415, D103Y). As to the kind of experiment: Bcl-2-D103Y Biochemical Assay (TR-FRET). The note with it: for IC50: TR-FRET, FITC labeled Bak peptide; for Ratio of Bcl-2 D103Y/Bcl-2 WT: ratio of IC50. The class given is binding. The essentials:
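Recombinant human Bcl-2 D103Y binding to its ligand measured by TR-FRET (ex 337 nm, em 490/520 nm) with increasing compound concentrations. Percent inhibition from the 490/520 nm ratio; IC50 from four-parameter logistic fit.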
Background: In TR-FRET formats the signal depends on donor and acceptor labels being close together.

A short description of series [3]: Metabolic Stability Study, liver microsome incubation (human). Particulars: human liver microsomes 0.5 mg/mL, 1 μM compound, NADPH; for half-life at 1 μM: NA^# = very stable, beyond the detection limits, read-out: T1/2 (min) Human; for microsomal CLint at 1 μM: read-out: CLint (μL × min^−1 × mg^−1) Human. The class given is in vitro ADME. In short, it runs like this:
(§1)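 Test compounds (1 μM) incubated at 37° C with 0.5 mg/mL liver microsomes plus NADPH regenerating system; samples quenched at 0, 30 and 60 min. Parent loss measured by LC-MS/MS, giving CLint and T1/2, with CLint normalised to microsomal protein concentration.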

Series [4] in a line: Metabolic Stability Study, liver microsome incubation (mouse). The note with it: mouse liver microsomes 0.5 mg/mL, 1 μM compound, NADPH; for half-life at 1 μM: NA^# = very stable, beyond the detection limits, read-out: T1/2 (min) mouse; for microsomal CLint at 1 μM: read-out: CLint (μL × min^−1 × mg^−1) mouse. The class given is in vitro ADME. In short, it runs like this:
as §1

Sequence of recombinant human Bcl-2 D103Y protein (P10415 whole entry D103Y): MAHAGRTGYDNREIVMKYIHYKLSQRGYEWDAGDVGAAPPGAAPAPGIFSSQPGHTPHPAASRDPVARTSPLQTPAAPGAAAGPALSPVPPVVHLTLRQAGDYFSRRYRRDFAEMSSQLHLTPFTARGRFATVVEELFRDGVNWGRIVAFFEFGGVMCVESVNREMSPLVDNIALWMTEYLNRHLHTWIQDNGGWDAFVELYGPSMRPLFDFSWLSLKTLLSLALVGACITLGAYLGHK

A word on the AUC(0-t): it is exposure summed from dosing to a finite time, without extrapolation to infinity. In general, Vd refers to the apparent volume that relates the amount in the body to the concentration in plasma or blood. Read a low Vd as little distribution into tissue. The term clearance denotes a measure of how efficiently the substance is removed, as volume per time. The low end stands for a low capacity for elimination, the high end for a high capacity for elimination. One may read the Cmax as the highest concentration seen after dosing. Regarding `CC(C)c1ccccc1[C@@H]1CN(Cc2ccc(F)c(F)c2)CCN1C1CC2(CCN(c3ccc(C(=O)NS(=O)(=O)c4ccc(NC[C@H]5CC[C@](C)(O)CC5)c([N+](=O)[O-])c4)c(Oc4cnc5[nH]ccc5c4)c3)CC2)C1` (single isomer, unassigned) [Example 52a, 2-((1H-pyrrolo[2,3-b]pyridin-5-yl)oxy)-4-(2-((R or S)-4-(3,4-difluorobenzyl)-2-(2-isopropylphenyl)piperazin-1-yl)-7-azaspiro[3.5]nonan-7-yl)-N-((4-((((1r,4r)-4-hydroxy-4-methylcyclohexyl)methyl)amino)-3-nitrophenyl)sulfonyl)benzamide], the IC50 in series [1] stood at 0.25 nM. In “Mouse PK Study” (Iv dosing (1 mg/kg)), the AUC(0-t) came out at 6510 ng·h/mL, the Vd stood at 0.62 L/kg and the clearance came to 2.6 mL/min/kg. In “Mouse PK Study” (Po dosing (10 mg/kg)), the exposure AUC(0-t) was found to be 20700 ng·h/mL and the highest level (Cmax) was 2140 ng/mL. Moreover, in series [2], the IC50 came out at 0.37 nM and the “Ratio of Bcl-2 D103Y/Bcl-2 WT” value was 2.4.

Consider `[2H]C([2H])([2H])Oc1ccc(CN2CCN(C3CC4(CCN(c5ccc(C(=O)NS(=O)(=O)c6ccc(NC[C@H]7CC[C@](C)(O)CC7)c([N+](=O)[O-])c6)c(Oc6cnc7[nH]cc(F)c7c6)c5)CC4)C3)[C@H](c3ccccc3C(C)C)C2)cc1OC([2H])([2H])[2H]` [Example 198, 4-(2-((R)-4-(3,4-bis(methoxy-d3)benzyl)-2-(2-isopropylphenyl)piperazin-1-yl)-7-azaspiro[3.5]nonan-7-yl)-2-((3-fluoro-1H-pyrrolo[2,3-b]pyridin-5-yl)oxy)-N-((4-((((1r,4r)-4-hydroxy-4-methylcyclohexyl)methyl)amino)-3-nitrophenyl)sulfonyl)benzamide], for which, in series [3], the half-life at 1 μM amounted to 247 min and the microsomal CLint at 1 μM stood at 5.6 µL/min/mg. For the same compound, the IC50 in series [1] was determined as 0.12 nM. Moreover, in series [4], the half-life at 1 μM is 222 min and the microsomal CLint at 1 μM came to 6.3 µL/min/mg. In addition, in series [2], the IC50 worked out at 0.08 nM and the “Ratio of Bcl-2 D103Y/Bcl-2 WT” value worked out at 1.1.

Consider `COc1cc(CN2CCN(C3CC4(C3)CN(c3ccc(C(=O)NS(=O)(=O)c5ccc(NC[C@H]6CC[C@](C)(O)CC6)c([N+](=O)[O-])c5)c(Oc5cnc6[nH]cc(F)c6c5)c3)C4)[C@H](c3ccccc3C(C)C)C2)ccc1C` [Example 274, 2-((3-fluoro-1H-pyrrolo[2,3-b]pyridin-5-yl)oxy)-N-((4-((((1r,4r)-4-hydroxy-4-methylcyclohexyl)methyl)amino)-3-nitrophenyl)sulfonyl)-4-(6-((R)-2-(2-isopropylphenyl)-4-(3-methoxy-4-methylbenzyl)piperazin-1-yl)-2-azaspiro[3.3]heptan-2-yl) benzamide], for which, in series [3], the half-life at 1 μM is 344 min and the microsomal CLint at 1 μM is 4 µL/min/mg. Further, the IC50 in series [1] turned out to be 0.15 nM. Further, in series [4], the half-life at 1 μM was 289 min and the microsomal CLint at 1 μM worked out at 4.8 µL/min/mg. In series [2], the IC50 worked out at 0.31 nM and the “Ratio of Bcl-2 D103Y/Bcl-2 WT” value is recorded as 0.57.

For `COc1cc(CN2CCN(C3CC4(CCN(c5ccc(C(=O)NS(=O)(=O)c6ccc(NC[C@H]7CC[C@](C)(O)CC7)c([N+](=O)[O-])c6)c(Oc6cnc7[nH]cc(F)c7c6)c5)CC4)C3)[C@H](c3ccccc3C(C)C)C2)cc2ccoc12` [Example 281, 2-((3-fluoro-1H-pyrrolo[2,3-b]pyridin-5-yl)oxy)-N-((4-((((1r,4r)-4-hydroxy-4-methylcyclohexyl)methyl)amino)-3-nitrophenyl)sulfonyl)-4-(2-((R)-2-(2-isopropylphenyl)-4-((7-methoxybenzofuran-5-yl)methyl)piperazin-1-yl)-7-azaspiro[3.5]nonan-7-yl)benzamide], the half-life at 1 μM was 870 min in series [3] and 564 min in series [4]. The microsomal CLint at 1 μM is 1.6 µL/min/mg in series [3] and 2.5 µL/min/mg in series [4]. In addition, the IC50 came to 0.13 nM in series [1] and 0.51 nM in series [2]. For the same compound, in series [2], the “Ratio of Bcl-2 D103Y/Bcl-2 WT” value was found to be 1.2.

`COc1cc(CN2CCN(C3CC4(CCN(c5ccc(C(=O)NS(=O)(=O)c6ccc(NC[C@H]7CC[C@](C)(O)CC7)c([N+](=O)[O-])c6)c(Oc6cnc7[nH]cc(F)c7c6)c5)CC4)C3)[C@H](c3ccccc3C(C)C)C2)cc2c1OCC2(C)C` [Example 285, 2-((3-fluoro-1H-pyrrolo[2,3-b]pyridin-5-yl)oxy)-N-((4-((((1r,4r)-4-hydroxy-4-methylcyclohexyl)methyl)amino)-3-nitrophenyl)sulfonyl)-4-(2-((R)-2-(2-isopropylphenyl)-4-((7-methoxy-3,3-dimethyl-2,3-dihydrobenzofuran-5-yl)methyl)piperazin-1-yl)-7-azaspiro [3.5]nonan-7-yl)benzamide]: the half-life at 1 μM is 299 min in series [3] and 177 min in series [4]. For the same compound, the microsomal CLint at 1 μM turned out to be 4.6 µL/min/mg in series [3] and 7.8 µL/min/mg in series [4]. For the same compound, the figures for the IC50 in series [1] and in series [2] were 0.18 nM and 0.49 nM, respectively. Besides, the “Ratio of Bcl-2 D103Y/Bcl-2 WT” value in series [2] amounted to 1.9.

In the case of `COc1cc(CN2CCN(C3CC4(C3)CN(c3ccc(C(=O)NS(=O)(=O)c5ccc(NC[C@H]6CC[C@](C)(O)CC6)c([N+](=O)[O-])c5)c(Oc5cnc6[nH]cc(F)c6c5)c3)C4)[C@H](c3ccccc3C(C)C)C2)cc2c1OCCC2` [Example 312, 2-((3-fluoro-1H-pyrrolo[2,3-b]pyridin-5-yl)oxy)-N-((4-((((1r,4r)-4-hydroxy-4-methylcyclohexyl)methyl)amino)-3-nitrophenyl)sulfonyl)-4-(6-((R)-2-(2-isopropylphenyl)-4-((8-methoxychroman-6-yl)methyl)piperazin-1-yl)-2-azaspiro[3.3]heptan-2-yl)benzamide], in series [3], the half-life at 1 μM was 423 min and the microsomal CLint at 1 μM stood at 3.3 µL/min/mg. In addition, the IC50 in series [1] amounted to 0.27 nM. In series [4], the half-life at 1 μM was 362 min and the microsomal CLint at 1 μM was 3.8 µL/min/mg. For the same compound, in series [2], the IC50 worked out at 0.081 nM and the “Ratio of Bcl-2 D103Y/Bcl-2 WT” value is reported as 1.0.

For the compound `COc1cc(CN2CCN(C3CC4(C3)CN(c3ccc(C(=O)NS(=O)(=O)c5ccc(NC[C@H]6CC[C@](C)(O)CC6)c([N+](=O)[O-])c5)c(Oc5cnc6[nH]cc(F)c6c5)c3)C4)[C@H](c3ccccc3C(C)C)C2)ccc1OC1CC1` [Example 321, 4-(6-((R)-4-(4-cyclopropoxy-3-methoxybenzyl)-2-(2-isopropylphenyl)piperazin-1-yl)-2-azaspiro[3.3]heptan-2-yl)-2-((3-fluoro-1H-pyrolo[2,3-b]pyridin-5-yl)oxy)-N-((4-((((1r,4r)-4-hydroxy-4-methylcyclohexy)methyl)amino)-3-nitrophenyl)sulfonyl)benzamide], the half-life at 1 μM in series [3] was 1020 min; in series [4], 628 min. The microsomal CLint at 1 μM is 1.4 µL/min/mg in series [3] and 2.2 µL/min/mg in series [4]. For the same compound, the IC50 in series [1] is 0.22 nM; in series [2], 0.14 nM. In series [2], the “Ratio of Bcl-2 D103Y/Bcl-2 WT” value is 0.79.

Take `COc1cc(CN2CCN(C3CC4(C3)CN(c3ccc(C(=O)NS(=O)(=O)c5ccc(NC[C@H]6CC[C@](C)(O)CC6)c([N+](=O)[O-])c5)c(Oc5cnc6[nH]cc(F)c6c5)c3)C4)[C@H](c3ccccc3C(C)C)C2)ccc1N1CCOCC1` [Example 361, 2-((3-fluoro-1H-pyrrolo[2,3-b]pyridin-5-yl)oxy)-N-((4-((((1r,4r)-4-hydroxy-4-methylcyclohexyl)methyl)amino)-3-nitrophenyl)sulfonyl)-4-(6-((R)-2-(2-isopropylphenyl)-4-(3-methoxy-4-morpholinobenzyl)piperazin-1-yl)-2-azaspiro[3.3]heptan-2-yl) benzamide]: in series [3], the microsomal CLint at 1 μM is under 1 µL/min/mg. Besides, the IC50 in series [1] was found to be 0.09 nM. In series [4], the half-life at 1 μM worked out at 273 min and the microsomal CLint at 1 μM came out at 5.1 µL/min/mg. In series [2], the IC50 is 0.079 nM and the “Ratio of Bcl-2 D103Y/Bcl-2 WT” value is given as 1.6.
